Test results from ChEMBL document CHEMBL1201862, “PubChem BioAssay data set” (2004).
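Step 1: Grow cells in 96-well plates. Step 2: Expose to compound for 48 hours at 5 concentrations. Step 3: Interpolate endpoints linearly; if unreached, use highest concentration. GI50 is the concentration that inhibits growth by half.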 Active and inactive are the calls of the source. Rule as the data show it: active = GI50 up to about 1.1 µM and inactive = higher.

Columns and labels:
Assay in all cases: NCI-60 cell line screen, 48 h
ACHN = test system: ACHN
M14 = test system: M14
K562 = test system: K562
CCRF-CEM = test system: CCRF-CEM
HOP-62 = test system: HOP-62
T47D = test system: T47D
RPMI-8226 = test system: RPMI-8226
SK-MEL-28 = test system: SK-MEL-28
PC-3 = test system: PC-3
A498 = test system: A498
DU-145 = test system: DU-145
SK-MEL-2 = test system: SK-MEL-2
SF-295 = test system: SF-295
SK-MEL-5 = test system: SK-MEL-5
SN12C = test system: SN12C
IGROV-1 = test system: IGROV-1
Malme-3M = test system: Malme-3M
UO-31 = test system: UO-31
HCC 2998 = test system: HCC 2998
SR = test system: SR

Measured: GI50

CCOP(=O)(/C=C/n1cc(C)c(=O)[nH]c1=O)OCC
inactive: ACHN > 100 µM | M14 > 100 µM | K562 > 100 µM | CCRF-CEM > 100 µM | HOP-62 > 100 µM | T47D > 100 µM | RPMI-8226 > 100 µM | SK-MEL-28 > 100 µM | PC-3 > 100 µM | A498 > 100 µM | DU-145 > 100 µM | SK-MEL-2 > 100 µM | SF-295 > 100 µM | SK-MEL-5 > 100 µM | SN12C > 100 µM | IGROV-1 > 100 µM

O=C(c1ccc(Cl)c(Cl)c1)N(C(=S)OC12CC3CC(CC(C3)C1)C2)c1ccccc1
inactive: ACHN 34.8 µM | Malme-3M 34.9 µM | M14 20.8 µM | K562 17.1 µM | CCRF-CEM 2.8 µM | UO-31 21.1 µM | HOP-62 44.6 µM | T47D 54.6 µM | SK-MEL-28 44.6 µM | PC-3 39.9 µM | A498 37.1 µM | DU-145 83.2 µM | SK-MEL-2 20 µM | SF-295 36.1 µM | SK-MEL-5 19.5 µM | HCC 2998 43.3 µM | SN12C 26.9 µM

CCOc1ccc(/N=N/C2C(=O)N(C(=O)CC(=O)Nc3ccccc3OC)N=C2C)cc1 (configuration not stated)
inactive: ACHN > 100 µM | Malme-3M 21.1 µM | M14 25.5 µM | K562 13.2 µM | CCRF-CEM > 100 µM | UO-31 > 71.1 µM | HOP-62 > 33.4 µM | T47D > 65 µM | RPMI-8226 45 µM | SK-MEL-28 > 100 µM | PC-3 > 100 µM | A498 > 30.1 µM | DU-145 > 77.6 µM | SK-MEL-2 > 38.2 µM | SF-295 > 36.6 µM | SK-MEL-5 32.3 µM | HCC 2998 > 21.7 µM | SN12C > 100 µM | IGROV-1 5.43 µM

CC(C)C(NC(=O)Oc1ccccc1)C(=O)NC1c2c(Br)sc(Br)c2C(=O)C1O (configuration not stated)
inactive: ACHN 5.56 µM | Malme-3M 6.38 µM | M14 4.58 µM | K562 7.8 µM | CCRF-CEM 7.62 µM | UO-31 9.64 µM | T47D 6.34 µM | SK-MEL-28 4.93 µM | PC-3 8.53 µM | A498 > 25 µM | DU-145 9.4 µM | SK-MEL-2 7.33 µM | SF-295 > 25 µM | SK-MEL-5 4.53 µM | HCC 2998 4.2 µM | SN12C 5.62 µM | IGROV-1 4.47 µM

CCN(CCO)CC1CCCC2CCCCC21 (configuration not stated)
inactive: ACHN > 100 µM | Malme-3M > 100 µM | M14 > 100 µM | K562 46.5 µM | UO-31 > 100 µM | HOP-62 > 100 µM | T47D > 100 µM | RPMI-8226 > 100 µM | SK-MEL-28 > 100 µM | PC-3 > 100 µM | A498 > 100 µM | DU-145 > 100 µM | SK-MEL-2 > 100 µM | SF-295 > 100 µM | SK-MEL-5 > 100 µM | HCC 2998 > 100 µM | SN12C > 100 µM | IGROV-1 > 100 µM

O=C(Nc1ccccc1)N1CCNC1=S
inactive: ACHN > 100 µM | Malme-3M > 100 µM | M14 > 100 µM | K562 > 100 µM | CCRF-CEM > 100 µM | UO-31 57.3 µM | HOP-62 > 100 µM | T47D 60.1 µM | RPMI-8226 > 100 µM | SR 69.2 µM | SK-MEL-28 > 100 µM | A498 > 100 µM | DU-145 > 100 µM | SK-MEL-2 > 100 µM | SF-295 > 100 µM | SK-MEL-5 > 100 µM | HCC 2998 15.5 µM | SN12C > 100 µM | IGROV-1 > 100 µM

CCC(C)(C)c1ccc(Oc2cccc(C(=O)O)c2)cc1
inactive: ACHN 58.9 µM | Malme-3M 44.6 µM | M14 52.8 µM | K562 32.6 µM | CCRF-CEM 28.9 µM | UO-31 48.1 µM | HOP-62 64.7 µM | T47D 33.7 µM | RPMI-8226 28.8 µM | SK-MEL-28 81.8 µM | PC-3 55 µM | A498 53.8 µM | DU-145 97.1 µM | SK-MEL-2 45.2 µM | SF-295 38.3 µM | SK-MEL-5 43.1 µM | HCC 2998 93.3 µM | SN12C 56.4 µM | IGROV-1 > 100 µM

c1ccc(CN2CCC(Nc3ccccc3)(c3nnnn3Cc3ccccc3)CC2)cc1
inactive: ACHN 35 µM | Malme-3M 18.5 µM | M14 16.1 µM | CCRF-CEM 20 µM | UO-31 6.12 µM | HOP-62 45.7 µM | T47D 19.5 µM | RPMI-8226 12.9 µM | SR 8.77 µM | SK-MEL-28 17.2 µM | A498 17.2 µM | DU-145 38.4 µM | SF-295 20.5 µM | SK-MEL-5 13 µM | HCC 2998 3.01 µM | SN12C 39.7 µM | IGROV-1 28.1 µM

O=[N+]([O-])c1ccc(CSc2nncc3[nH]cnc23)cc1
inactive: ACHN 77.4 µM | Malme-3M 66.8 µM | M14 > 100 µM | K562 84.9 µM | CCRF-CEM > 100 µM | UO-31 33.4 µM | HOP-62 > 100 µM | T47D > 100 µM | RPMI-8226 > 100 µM | SR > 100 µM | SK-MEL-28 > 100 µM | PC-3 > 100 µM | A498 > 100 µM | SK-MEL-2 83.6 µM | SF-295 65.2 µM | SK-MEL-5 > 100 µM | HCC 2998 > 100 µM | SN12C > 100 µM | IGROV-1 > 100 µM

N#CC(=S)Nc1cccc(Cl)c1
inactive: ACHN 26.2 µM | Malme-3M 30.3 µM | M14 27.5 µM | K562 19.5 µM | CCRF-CEM 30 µM | HOP-62 43.8 µM | T47D 27.2 µM | RPMI-8226 5.38 µM | SK-MEL-28 44.7 µM | PC-3 32.7 µM | A498 34.1 µM | DU-145 50.8 µM | SK-MEL-2 26.5 µM | SF-295 23.8 µM | SK-MEL-5 4.11 µM | HCC 2998 28.8 µM | SN12C 44.1 µM | IGROV-1 5.13 µM

CC1(C)[C@H]2Cc3cc4nc5ccccn5c4cc3[C@@H]1C2
inactive: ACHN 18.7 µM | Malme-3M 12.4 µM | M14 19.8 µM | K562 19.8 µM | CCRF-CEM 31.3 µM | UO-31 14 µM | HOP-62 18.7 µM | T47D 20.7 µM | RPMI-8226 14.5 µM | SK-MEL-28 16 µM | PC-3 17.9 µM | DU-145 20.8 µM | SK-MEL-2 15.5 µM | SF-295 15.2 µM | SK-MEL-5 17.6 µM | HCC 2998 18.3 µM | SN12C 19.2 µM | IGROV-1 19 µM
